Values of other authors as cited in patent US20040253692A1, “Streptomyces sp. CJPV975652 capable of converting compactin to pravastatin and method for producing pravastatin using the same” (priority 2003, published 2004).

What was measured:
[1] = daily dosage of 5-10 mg for 3 months
[2] = biological target: T1, HMG-CoA reductase (Homo sapiens, UniProt P04035); conditions: compared with compactin
T1 sequence (P04035 1-888): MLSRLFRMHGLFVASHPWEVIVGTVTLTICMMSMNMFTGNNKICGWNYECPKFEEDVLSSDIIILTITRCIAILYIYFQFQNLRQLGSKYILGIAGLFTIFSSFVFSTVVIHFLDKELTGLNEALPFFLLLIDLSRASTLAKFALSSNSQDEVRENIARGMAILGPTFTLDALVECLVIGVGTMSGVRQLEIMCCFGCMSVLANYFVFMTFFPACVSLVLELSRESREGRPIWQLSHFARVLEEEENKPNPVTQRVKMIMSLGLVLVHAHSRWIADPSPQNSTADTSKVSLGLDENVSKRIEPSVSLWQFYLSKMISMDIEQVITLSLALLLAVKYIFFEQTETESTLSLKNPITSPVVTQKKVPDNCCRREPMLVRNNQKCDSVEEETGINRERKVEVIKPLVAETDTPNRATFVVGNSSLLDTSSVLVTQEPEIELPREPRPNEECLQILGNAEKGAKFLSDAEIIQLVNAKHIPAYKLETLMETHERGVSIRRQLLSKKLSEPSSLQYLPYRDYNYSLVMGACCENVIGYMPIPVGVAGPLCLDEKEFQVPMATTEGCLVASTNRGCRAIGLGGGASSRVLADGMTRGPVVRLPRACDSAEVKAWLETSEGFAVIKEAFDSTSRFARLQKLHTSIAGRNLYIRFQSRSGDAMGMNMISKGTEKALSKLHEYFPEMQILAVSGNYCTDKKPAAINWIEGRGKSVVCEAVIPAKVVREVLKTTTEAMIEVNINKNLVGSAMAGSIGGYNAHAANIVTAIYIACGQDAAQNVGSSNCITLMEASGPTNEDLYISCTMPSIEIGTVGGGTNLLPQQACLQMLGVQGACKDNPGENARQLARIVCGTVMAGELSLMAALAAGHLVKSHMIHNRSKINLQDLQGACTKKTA

## CC[C@H](C)C(=O)O[C@H]1C[C@H](O)C=C2C=C[C@H](C)[C@H](CC[C@@H](O)C[C@@H](O)CC(=O)O)[C@H]21 [pravastatin]
[1]
  reduction of LDL-cholesterol level: 20-40%
  reduction of total cholesterol level: 20-40%
[2]
  effectiveness as a HMG-CoA reductase inhibitor: more effective than compactin
